In ChEMBL document CHEMBL4420076, “Amylin and calcitonin receptor agonist” (2017):
Numbered stars: 1 amine (or outer) side, 2 acyl side, 3 side chain; on linkers, the order of the positions; unused ones are H or OH. Peptide text beside a SMILES is read from it. * marks the point of attachment. C20 diacid = O=C(O)CCCCCCCCCCCCCCCCCCC(=O)*; γGlu = O=C(O)[C@H](CCC(=O)[*:2])N[*:1]

Assays:
[1] = Terminal half life in Sprague-Dawley rat at 20 nmol/kg, sc by LC-MS analysis; type: ADME, organism-based; conditions: in vivo, read-out: beta t1/2 (converted)
[2] = Solubility in 100 mM bistrispropane buffer at pH 6.5 incubated for 18 hrs by UPLC analysis; type: physicochemical
[3] = Stability in pH 7.5 buffer assessed as compound recovery at 1 uM by Thioflavin T based fluorescence assay; type: physicochemical; conditions: read-out: Drug recovery
[4] = Stability in pH 7.5 buffer assessed as lag time for fibril formation at 1 uM by Thioflavin T based fluorescence assay; type: physicochemical; conditions: pH 7.5, 1 µM
[5] = Solubility in 100 mM glycylglycine buffer at pH 5.0 incubated for 18 hrs by UPLC analysis; type: physicochemical
[6] = target: T1, Amylin receptor AMY3; CALCR/RAMP3 (Rattus norvegicus, UniProt P32214+Q9JJ73); test: Displacement of [125I]-labeled rat amylin from rat amylin receptor expressed in BHK tkts13 cell membranes co-expressing RAMP3 incubated for 120 mins by scintillation proximity assay
T1 sequence (P32214 whole entry): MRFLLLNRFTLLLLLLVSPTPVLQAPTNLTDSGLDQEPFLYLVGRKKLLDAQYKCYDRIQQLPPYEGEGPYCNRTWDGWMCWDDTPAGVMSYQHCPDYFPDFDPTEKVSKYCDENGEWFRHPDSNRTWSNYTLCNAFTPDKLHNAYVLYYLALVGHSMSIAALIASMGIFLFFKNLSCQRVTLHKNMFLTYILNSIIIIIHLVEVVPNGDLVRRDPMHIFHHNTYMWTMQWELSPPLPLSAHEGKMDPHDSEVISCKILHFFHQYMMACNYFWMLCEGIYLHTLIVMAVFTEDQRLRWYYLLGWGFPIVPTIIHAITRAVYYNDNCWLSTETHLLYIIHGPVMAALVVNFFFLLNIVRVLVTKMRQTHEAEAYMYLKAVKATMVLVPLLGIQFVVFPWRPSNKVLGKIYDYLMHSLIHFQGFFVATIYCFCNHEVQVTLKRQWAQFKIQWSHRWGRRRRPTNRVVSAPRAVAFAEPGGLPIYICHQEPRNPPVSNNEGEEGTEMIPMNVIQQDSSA
T1 sequence (Q9JJ73 whole entry): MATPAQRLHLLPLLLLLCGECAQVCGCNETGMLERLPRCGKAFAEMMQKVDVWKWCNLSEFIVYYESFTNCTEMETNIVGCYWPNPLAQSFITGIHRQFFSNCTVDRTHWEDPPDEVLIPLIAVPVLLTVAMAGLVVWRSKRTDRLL

Calcitonin receptor [7] = target: T2, Calcitonin receptor (Homo sapiens, UniProt P30988); test: Displacement of [125I]-labeled human calcitonin from human calcitonin receptor expressed in BHK tkts13 cell membranes incubated for 1 hr by scintillation proximity assay
T2 sequence (P30988 whole entry): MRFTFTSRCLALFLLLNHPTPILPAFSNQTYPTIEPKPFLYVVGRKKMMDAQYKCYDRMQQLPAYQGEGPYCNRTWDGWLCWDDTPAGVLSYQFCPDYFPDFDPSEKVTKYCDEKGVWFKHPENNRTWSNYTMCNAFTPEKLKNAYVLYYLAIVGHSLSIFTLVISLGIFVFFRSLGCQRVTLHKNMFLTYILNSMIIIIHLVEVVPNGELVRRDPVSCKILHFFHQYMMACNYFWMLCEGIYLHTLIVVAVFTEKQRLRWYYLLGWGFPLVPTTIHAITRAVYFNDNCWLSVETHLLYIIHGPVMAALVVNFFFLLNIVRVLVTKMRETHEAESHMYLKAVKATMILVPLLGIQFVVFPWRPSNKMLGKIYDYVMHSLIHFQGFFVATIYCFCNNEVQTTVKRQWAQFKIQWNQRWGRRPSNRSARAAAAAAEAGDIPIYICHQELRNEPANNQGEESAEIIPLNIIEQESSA

[8] = Solubility in 100 mM bistrispropane buffer at pH 7.0 incubated for 18 hrs by UPLC analysis; type: physicochemical
[9] = Solubility in 100 mM bistrispropane buffer at pH 7.5 incubated for 18 hrs by UPLC analysis; type: physicochemical
[10] = Solubility in 100 mM bistrispropane buffer at pH 6.0 incubated for 18 hrs by UPLC analysis; type: physicochemical
[11] = Solubility in 100 mM bistrispropane buffer at pH 8.0 incubated for 18 hrs by UPLC analysis; type: physicochemical
Rattus norvegicus [12] = test: Reduction in food intake in Sprague-Dawley rat at 3 nmol/kg measured 0 to 24 hrs post dose relative to control; type: functional; set-up: scale not given: the % may be the effect or the level left
[13] = target: T3, Amylin receptor AMY3; CALCR/RAMP3 (Homo sapiens, UniProt O60896+P30988); test: Displacement of [125I]-labeled rat amylin from human amylin receptor expressed in BHK tkts13 whole cells co-expressing RAMP3 incubated for 60 mins by scintillation proximity assay; type: cell-based
T3 sequence (P30988 whole entry): T2 sequence (P30988 whole entry)
T3 sequence (O60896 whole entry): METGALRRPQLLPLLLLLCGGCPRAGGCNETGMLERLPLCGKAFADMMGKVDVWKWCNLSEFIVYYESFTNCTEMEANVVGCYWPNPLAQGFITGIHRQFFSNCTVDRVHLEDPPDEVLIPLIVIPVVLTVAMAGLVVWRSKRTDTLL

[14] = Solubility in 100 mM glycylglycine buffer at pH 4.0 incubated for 18 hrs by UPLC analysis; type: physicochemical
Calcitonin receptor [15] = target: T2, Calcitonin receptor; test: Displacement of [125I]-labeled human calcitonin from human calcitonin receptor expressed in BHK tkts13 whole cells incubated for 60 mins by scintillation proximity assay; type: cell-based
[16] = Solubility in 100 mM glycylglycine buffer at pH 3.0 incubated for 18 hrs by UPLC analysis; type: physicochemical
Calcitonin receptor [17] = target: T2, Calcitonin receptor; test: Agonist activity at human calcitonin receptor expressed in BHK570 cells assessed as increase in intracellular cAMP concentration incubated for 3 hrs in absence of albumin by CRE luciferase reporter gene assay; type: functional, cell-based
[18] = target: T3, Amylin receptor AMY3; CALCR/RAMP3; test: Agonist activity at human amylin receptor expressed in BHK570 cells co-expressing RAMP3 assessed as increase in intracellular cAMP concentration incubated for 3 hrs in presence of 10% FBS by CRE luciferase reporter gene assay; type: functional, cell-based
Rattus norvegicus [19] = test: Reduction in food intake in Sprague-Dawley rat at 3 nmol/kg measured 24 to 48 hrs post dose relative to control; type: functional; set-up: scale not given: the % may be the effect or the level left

Structure (SMILES)	half-life [1]	solubility at 18 h [2]	remaining at 1 µM [3]	Time [4]	solubility at 18 h [5]	IC50 [6]	IC50 (Calcitonin receptor [7])	solubility at 18 h [8]	solubility at 18 h [9]	solubility at 18 h [10]	solubility at 18 h [11]	Activity (Rattus norvegicus [12])	IC50 [13]	solubility at 18 h [14]	IC50 (Calcitonin receptor [15])	solubility at 18 h [16]	EC50 (Calcitonin receptor [17])	EC50 [18]	Activity (Rattus norvegicus [19])
CC(C)C[C@H](NC(=O)[C@H](CCCCN)NC(=O)CNC(=O)[C@H](CC(C)C)NC(=O)[C@@H](NC(=O)[C@H](CS)NC(=O)[C@@H](NC(=O)[C@H](CO)NC(=O)[C@H](CC(C)C)NC(=O)[C@H](CC(N)=O)NC(=O)[C@H](CO)NC(=O)[C@@H](N)CS)[C@@H](C)O)C(C)C)C(=O)N[C@@H](CO)C(=O)N[C@@H](CCC(N)=O)C(=O)N[C@@H](CCC(=O)O)C(=O)N[C@@H](CC(C)C)C(=O)N[C@@H](Cc1cnc[nH]1)C(=O)N[C@@H](CCCCN)C(=O)N[C@@H](CC(C)C)C(=O)N[C@@H](CCC(N)=O)C(=O)N[C@H](C(=O)N[C@@H](Cc1ccc(O)cc1)C(=O)N1CCC[C@H]1C(=O)N[C@@H](CCCNC(=N)N)C(=O)N[C@H](C(=O)N[C@@H](CC(N)=O)C(=O)N[C@H](C(=O)NCC(=O)N[C@@H](CO)C(=O)NCC(=O)N[C@H](C(=O)N1CCC[C@H]1C(=O)O)[C@@H](C)O)[C@@H](C)O)[C@@H](C)O)[C@@H](C)O	1 h	–	–	–	–	–	–	–	–	–	–	–	–	–	–	–	–	–	–
CC(C)C[C@H](NC(=O)[C@H](C)NC(=O)[C@H](C)NC(=O)[C@@H](NC(=O)[C@H](CO)NC(=O)[C@H](CC(C)C)NC(=O)[C@H](CCC(=O)O)NC(=O)[C@H](CO)NC(=O)[C@H](C)NC(=O)CC[C@H](NC(=O)CCCCCCCCCCCCCCCCCCC(=O)O)C(=O)O)[C@@H](C)O)C(=O)NCC(=O)N[C@@H](CCCNC(=N)N)C(=O)N[C@@H](CC(C)C)C(=O)N[C@@H](CO)C(=O)N[C@@H](C)C(=O)N[C@@H](CCC(=O)O)C(=O)N[C@@H](CC(C)C)C(=O)N[C@@H](Cc1cnc[nH]1)C(=O)N[C@@H](CCC(=O)O)C(=O)N[C@@H](CC(C)C)C(=O)N[C@@H](C)C(=O)N[C@H](C(=O)N[C@@H](Cc1ccc(O)cc1)C(=O)N1CCC[C@H]1C(=O)N[C@@H](CCCNC(=N)N)C(=O)N[C@H](C(=O)N[C@@H](CCC(=O)O)C(=O)N[C@H](C(=O)NCC(=O)N[C@@H](CO)C(=O)NCC(=O)N[C@@H](CO)C(=O)N1CCC[C@H]1C(N)=O)[C@@H](C)O)[C@@H](C)O)[C@@H](C)O ({C20 diacid-γGlu}-ASELSTAALGRLSAELHELATYPRTETGSGSP-NH2)	–	≥ 200 µM	100%	> 45 h	≥ 200 µM	3.99 nM	0.07 nM	≥ 200 µM	≥ 200 µM	≥ 200 µM	≥ 200 µM	45%	2.61 nM	≥ 200 µM	2.94 nM	≥ 200 µM	0.023 nM	0.067 nM	67%
